The record followed here is ChEMBL document CHEMBL4334470, “Small molecule modulators targeting protein kinase CK1 and CK2” (Eur J Med Chem, 2019).

One assay addresses Casein kinase I. The experiment in a line: Inhibition of CK1 (unknown origin). The class given is protein assay, Homo sapiens.
The target in assay [1] is T1, Casein kinase II subunit alpha (Homo sapiens, UniProt P68400). The experiment in a line: Inhibition of CK2alpha (unknown origin).
Assay [2] addresses Casein kinase I isoform alpha (Homo sapiens, UniProt P48729). Briefly: Inhibition of CK1alpha (unknown origin).
For assay [3], the target named is Casein kinase I delta/epsilon (Homo sapiens, UniProt P48730+P49674). Briefly: Inhibition of CK1delta/CK1epsilon (unknown origin). The class given is protein-complex assay.
Sequence of Casein kinase I delta/epsilon (P48730 whole entry): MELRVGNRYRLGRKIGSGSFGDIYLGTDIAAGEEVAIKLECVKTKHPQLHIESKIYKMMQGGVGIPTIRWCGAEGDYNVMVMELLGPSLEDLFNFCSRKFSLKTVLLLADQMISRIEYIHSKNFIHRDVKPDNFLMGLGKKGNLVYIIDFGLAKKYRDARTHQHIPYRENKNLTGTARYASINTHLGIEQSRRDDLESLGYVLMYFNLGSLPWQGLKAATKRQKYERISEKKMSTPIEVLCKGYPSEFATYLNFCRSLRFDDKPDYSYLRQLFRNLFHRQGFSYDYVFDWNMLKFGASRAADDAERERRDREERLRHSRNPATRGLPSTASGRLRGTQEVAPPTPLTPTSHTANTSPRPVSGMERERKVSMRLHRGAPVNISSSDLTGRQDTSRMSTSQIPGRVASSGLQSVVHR
Sequence of Casein kinase I delta/epsilon (P49674 whole entry): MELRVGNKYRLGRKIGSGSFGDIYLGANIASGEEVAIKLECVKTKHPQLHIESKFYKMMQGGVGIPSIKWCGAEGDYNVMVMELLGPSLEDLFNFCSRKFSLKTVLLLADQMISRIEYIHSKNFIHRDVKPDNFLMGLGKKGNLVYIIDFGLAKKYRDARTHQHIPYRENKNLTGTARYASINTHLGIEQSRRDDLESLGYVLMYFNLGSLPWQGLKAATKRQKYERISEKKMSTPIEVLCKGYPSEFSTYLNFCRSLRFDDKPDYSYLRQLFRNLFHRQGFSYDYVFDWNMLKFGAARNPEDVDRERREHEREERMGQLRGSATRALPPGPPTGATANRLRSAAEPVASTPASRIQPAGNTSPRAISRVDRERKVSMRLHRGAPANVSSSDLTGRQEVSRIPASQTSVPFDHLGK
In assay [4] the target is T1, Casein kinase II subunit alpha. Briefly: Inhibition of CK2alpha (unknown origin) using RRRADDSDDDDD as substrate in presence of [gamma33P]-ATP by autoradiography.

Each structure is given as a SMILES string.

T1 sequence (P68400 whole entry, canonical isoform): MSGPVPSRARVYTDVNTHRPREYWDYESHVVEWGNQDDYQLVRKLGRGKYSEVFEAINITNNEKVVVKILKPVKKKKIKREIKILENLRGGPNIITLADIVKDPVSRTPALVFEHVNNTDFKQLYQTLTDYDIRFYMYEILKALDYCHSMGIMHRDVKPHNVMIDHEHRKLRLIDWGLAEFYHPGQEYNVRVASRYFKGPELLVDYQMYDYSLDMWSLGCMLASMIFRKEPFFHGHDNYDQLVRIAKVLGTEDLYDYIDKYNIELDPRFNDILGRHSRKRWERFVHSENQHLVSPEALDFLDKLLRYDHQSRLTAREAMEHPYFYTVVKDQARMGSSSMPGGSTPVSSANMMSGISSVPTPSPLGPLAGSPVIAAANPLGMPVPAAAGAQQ
Sequence of Casein kinase I isoform alpha (P48729 whole entry, canonical isoform): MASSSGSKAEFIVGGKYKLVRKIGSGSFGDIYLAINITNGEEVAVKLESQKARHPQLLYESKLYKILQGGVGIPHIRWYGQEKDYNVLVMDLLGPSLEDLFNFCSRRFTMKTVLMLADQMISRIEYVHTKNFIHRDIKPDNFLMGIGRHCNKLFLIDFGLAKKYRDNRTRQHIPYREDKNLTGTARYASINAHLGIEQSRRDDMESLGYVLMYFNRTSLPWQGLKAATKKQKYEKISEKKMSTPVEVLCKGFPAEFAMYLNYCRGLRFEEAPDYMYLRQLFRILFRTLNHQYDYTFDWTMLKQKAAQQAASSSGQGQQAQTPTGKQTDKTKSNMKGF

In the case of `NCCNS(=O)(=O)c1ccc(Cl)c2ccncc12`, at Casein kinase I, the concentration for half-maximal inhibition (IC50) came to 9.5 µM. This lies in the single-digit micromolar range.

`Cc1c(Br)c(=O)oc2c(Br)c(O)ccc12` displayed an inhibitory constant (Ki) in assay [1] of 0.06 µM.

Take `CCCCCCCCCCCC1=C(O)C(=O)C2=C(OC(N)=C(C#N)C2[N+](=O)[O-])C1=O` (stereo unspecified): in assay [1], affinity was put at a Ki of 0.22 µM.

In the case of `COc1cc(OC)c(/C=C2\C(=O)Nc3ccccc32)c(OC)c1`, the IC50 was found to be 16 µM in assay [2] and 1 µM in assay [3].

On to `O=c1c(O)c(-c2ccc(O)c(O)c2)oc2cc(O)ccc12` [FISETIN], for which the inhibitory constant (Ki) in assay [1] turned out to be 0.35 µM.

Turning to `O=C(O)/C=C/c1cc(Br)c(Br)c(Br)c1Br`, the inhibition constant (Ki) in assay [4] came out at 0.077 µM.

The compound `O=c1oc2c(O)c(O)cc3c(=O)oc4c(O)c(O)cc1c4c23` [ELLAGIC ACID] displayed an inhibition constant Ki in assay [1] of 0.02 µM.

Compound `O=c1c2c(O)cccc2oc2c([N+](=O)[O-])ccc(O)c12` registered a Ki in assay [1] of 0.78 µM.

In assay [1], `O=c1oc2c(Br)c(O)ccc2c2ccc(O)cc12` had a Ki of 0.007 µM.

In the case of `O=C1c2c(O)cccc2C(=O)c2c([N+](=O)[O-])ccc(O)c21`, in assay [1], the inhibition constant (Ki) turned out to be 0.8 µM.

A word on the IC50: it is the concentration that gives 50% inhibition. Usually Ki stands for the equilibrium dissociation constant of an inhibitor or competing ligand from its target.
